Measured values: patent US20130338092A1, “COMPOUNDS AND METHODS FOR TARGETING LEUKEMIC STEM CELLS” (The Broad Institute, Inc., priority 2011, published 2013)
Where two headings read alike, the source gives them in different places.

What was measured:
[1] = test system: human AML cell lines (U937, THP-1, NOMO-1, SKM-1, NB4, and OCI-AML3); assay: AML cell line screen (CellTiter-Glo); type: cell-based
Procedure: Nomo-1, THP-1, SKM-1, NB4, and U937 cell lines were grown in RPMI (12-702F, BioWhittaker), 10% FBS (10082-147, Gibco), and 1% Pen-Strep (15140-122, Gibco) and OCI-AML3 was grown in α-MEM (36453, Stem Cell Technologies), 10% FBS (10082-147, Gibco), and 1% Pen-Strep (15140-122, Gibco). 3000 cells were plated in each well in 30 μl in white, 384 well plates (3570, Corning) and 16 hours later 100 nl of the appropriate compound was added to each well. 72 hours later the plates were cooled to room temperature and 30 μl of CellTiterGlo reagent (G7570, Promega) diluted 1:1 in PBS was added to each well and the plates were analyzed using an Envision (Perkin Elmer).
First, a traditional small molecule screen was performed on six human AML cell lines (U937, THP-1, NOMO-1, SKM-1, NB4, and OCI-AML3), two of which (NOMO-1, THP-1) contain the same oncogene (MLL-AF9) used to generate the primary leukemia cells utilized in our coculture system. The cell lines were grown in isolation under standard conditions, treated with the 160 compounds at 8-point dose, and three days later the viability of each well was quantified using CellTiter-Glo reagent. The IC50s from these AML cell line screens were then compared to the IC50s from the coculture screens. […] As discussed, the existence of such differentially-active compounds is consistent with our hypothesis that coculturing can expand the pool of therapeutically promising compounds identified in high throughput format.

[2] = test system: LSC-enriched leukemia cells (MLL-AF9); assay: Leukemia coculture assay on primary MSC stroma (cobblestoning readout); type: cell-based, murine; details: for IC50: read-out: Leukemia IC50; for leukemia-selective activity in coculture vs normal HSPCs: primary MSC stroma
Procedure: Whole bone marrow were harvested from C57/B16 actin-dsRed mice (006051, Jackson Labs), subjected to red blood cell lysis (Qiagen), then granulocyte-macrophage progenitors (GMPs) were isolated by Fluorescence-activated cell sorting (FACsAria, Becton Dickinson). GMPs were spinfected twice (2500 rpm, 90 min, 37 C) in the presence of mIL3 (10 ng/ml, Peprotech), mIL6 (10 ng/ml, Peprotech), and mSCF (10 ng/ml, Peprotech) with pMSCV-MLL-AF9-Neo virus then transplanted into lethally irradiated C57/B16 recipients. After disease onset, the spleens were harvested and transplanted into sublethally irradiated secondary recipients. Subsequent transplantation of bulk spleen cells from leukemic secondary mice was repeated twice to generate leukemic GMPs from quaternary transplant leukemic mouse bone marrow.
Long bones and hips from moribund leukemic mice were harvested, cleaned, crushed and sequentially passed through 100 and 70 μM filters (Falcon). The cells were RBC lysed (Qiagen) and stained in PBS+2% FBS (Omega). Antibodies included lineage markers CD4, CD8, Gr1, Mac1, IL-7R, and Ter119 (Caltag), c-kit (17-1172-83, eBioscience), Sca-1 (11-5981-82, eBioscience), CD34 (11-0341-85, eBioscience), and CD16/32 (25-0161-82, eBioscience). Hoechst 33258 (H21491, Invitrogen) was also used, to identify live cells. Cells were sorted on a FacsAria II (Becton Dickinson).
The humerii, tibiae, ilia, femurs, and spine were isolated from actin-GFP mice (000329, Jackson Lab) crushed using a mortar and pestle, washed in phosphate-buffered saline (PBS) without magnesium and calcium (Gibco) with 0.5% fetal bovine serum (FBS) (HyClone) and filtered through a 70-μm filter. Red blood cell lysis was performed with ammonium-chloride/potassium-chloride (ACK) lysing buffer (Lonza), the cells were resuspended in α-MEM (StemCell Technologies), 20% FBS (HyClone) and 1× Pen-Strep (CellGro), plated in 25 ml in 150-cm^2 tissue-culture flasks (three per mouse), and incubated at 33° C. with 5% CO2. After 2-3 days, the medium was replaced with fresh α-MEM with 20% FBS. After 8-14 days, the cells were rinsed, split by trypsinization (CellGro), pooled, filtered through a 70 μm filter, replated at 3-4 million cells per 150-cm^2 tissue-culture flask, and grown at 33° C. with 5% CO2 for 3-4 days until nearly confluent. The cells were trypsinized, filtered, and resuspended in 0.5% FBS in PBS with biotin-conjugated anti-mouse CD105 antibody (eBioscience) for 15-30 minutes at room temperature. The CD105-labeled cells were incubated with Dynabead M-280 streptavidin-linked magnetic beads (Invitrogen) for 15-30 minutes at 4° C. with agitation and isolated using magnetic separation and rinsed once. The CD105^+ cell fraction was replated at 1-2 million cells per 150-cm^2 tissue-culture flask and incubated at 33° C. with 5% CO2 for 2-3 days.
The MSCs were trypsinized, filtered, diluted in phenol-red-free alpha-MEM with 20% FBS, and plated (30 μl for a total of 2000 cells per well) on 384-well clear-bottomed black tissue-culture treated plate (3712, Corning) pretreated with fibronectin (Millipore). Plate covers (VWR) were added, the plates were spun and at 500 with slow braking, and the cells were incubated at room temperature for 60-90 minutes before incubation at 33° C. with 5% CO2 for 3 days prior to hematopoietic cell plating. […]

[3] = test system: primary leukemia cells; assay: Annexin V apoptosis assay; type: cell-based, murine; details: 22 hours in suspension, compared to DMSO control
Procedure: Compounds were added to a final DMSO concentration of 0.02%. […] The cells were analyzed by flow cytometry on a FacsCanto II (Becton Dickinson).

[4] = Mus musculus, MLL-AF9, LSCs on primary MSC stroma, 8-point dose

SMILES | inhibition of AML cell lines at maximal doses ([1]; of the positive control) [%] | inhibition of AML cell lines ([1]; relative to DMSO control, concentrations greater than 30 μM) | IC50 [2, 4] [nM] | leukemia-selective activity in coculture vs normal HSPCs [2] | induction of apoptosis (Annexin V) [3] | activity against AML cell lines [1] | IC50 ([1]; Homo sapiens, read-out: IC50 across the AML cell lines) [nM] | IC50 ([2]; LSCs on primary MSC stroma, 8-point dose) [nM] | IC50 ([2]; Mus musculus, MLL-AF9, statins (acid form), LSCs cocultured on primary MSC stroma) [nM]
CC1(C)C(C(=O)Nc2ccc(S(=O)(=O)c3ccc(NC(=O)C4C(C)(C)C4(C)C)cc3)cc2)C1(C)C [BRD7116] | 50 | roughly 50% | 204 | selective loss of the LSC-enriched leukemia cells | mild induction of apoptosis | – | – | – | –
CCC(C)C(=O)OC1CC(C)C=C2C=CC(C)C(CCC(O)CC(O)CC(=O)O)C21 (stereo not drawn) [Lovastatic acid] | – | – | < 200 | leukemia-selective activity | underwent apoptosis | only weak activity | > 10000 | 167 | < 200
